Test results taken from the OligoGym collection.
Values joined by “and” are separate entries in the source; they are usually repeats but may differ in a detail not shown here. Identical values can stand only once. After the bases stand the sugars from the 5' end (letter, count) and the backbone: PS all phosphorothioate, else s phosphorothioate and o phosphodiester by linkage. Methylation of C is not given here. e = 2'-O-(2-methoxyethyl) (MOE); k = constrained ethyl (cEt); d = 2'-deoxy (DNA)

Target: IRF4
Conditions: ASO

For GGGAACAAAAGGTTCC (sugars k3 d10 k3, PS), the target mRNA inhibition (SK-MEL-28, 4 µM) was -11%.
Work on GGGAATCCTTAATTAT (sugars k3 d10 k3, PS) yielded a target mRNA inhibition (SK-MEL-28, 4 µM) of 12%.
“GGGATTATATACTGGT (sugars k2 d9 e3 k2, PS)” showed a target mRNA inhibition (MM.1R, 1 µM) of 35%.
For “GGGATTATATACTGGT (sugars kddddddddddkekek, PS)”, the target mRNA inhibition (MM.1R, 1 µM) was 34%.
Sequence “GGGATTATATACTGGT (sugars kkddddddddddkeke, PS)” has a target mRNA inhibition (MM.1R, 1 µM) of 46%.
“GGGATTATATACTGGT (sugars kkdddddddddekeke, PS)” gave a target mRNA inhibition (MM.1R, 1 µM) of 34%.
GGGCACAAGCATAAAA (sugars k3 d10 k3, PS) was tested, and the target mRNA inhibition (SK-MEL-28, 4 µM) was 20%.
GGGCACCCCGCCCCGA (sugars k3 d10 k3, PS) showed a target mRNA inhibition (SK-MEL-28, 4 µM) of 1%.
Work on GGGCAGGTTTCATTTC (sugars k3 d10 k3, PS) yielded a target mRNA inhibition (SK-MEL-28, 4 µM) of 32%.
GGGCTGTCCCTAGTGC (sugars k3 d10 k3, PS) showed a target mRNA inhibition (SK-MEL-28, 4 µM) of -9%.
In the case of GGGTAAGCACTGAGGC (sugars k3 d10 k3, PS), the target mRNA inhibition (SK-MEL-28, 4 µM) was 61%.
For GGGTATTTATAACCGG (sugars k3 d10 k3, PS), the target mRNA inhibition (MM.1R, 0.0625 µM) was -16% and 5% and 1%, the target mRNA inhibition (MM.1R, 0.074 µM) was -4% and the target mRNA inhibition (MM.1R, 0.222 µM) was -19%. The target mRNA inhibition (MM.1R, 0.666 µM) was -4%, the target mRNA inhibition (MM.1R, 1 µM) was 1% and 7% and 26% and the target mRNA inhibition (MM.1R, 2 µM) was 9%. The target mRNA inhibition (MM.1R, 4 µM) was 12% and 24% and 34% and the target mRNA inhibition (SK-MEL-28, 4 µM) was 59%.
Sequence GGGTGGTAGAATGTGA (sugars k3 d10 k3, PS) has a target mRNA inhibition (MM.1R, 1 µM) of 33%.
With GGTAATCTTCTGGATT (sugars k3 d10 k3, PS) the target mRNA inhibition (SK-MEL-28, 4 µM) was 30%.
With GGTAGTAGACCACAGT (sugars k3 d10 k3, PS) the target mRNA inhibition (MM.1R, 1 µM) was 23%.
GGTCAAAAAGATGCAG (sugars k3 d10 k3, PS) gave a target mRNA inhibition (SK-MEL-28, 4 µM) of 51%.
GGTCAACACTTGGAGA (sugars k3 d10 k3, PS) showed a target mRNA inhibition (MM.1R, 1 µM) of -23%.
With GGTCATACCCTGGATC (sugars k3 d10 k3, PS) the target mRNA inhibition (SK-MEL-28, 4 µM) was 49%.
GGTCTGAGTTGTACAG (sugars k3 d10 k3, PS) was tested, and the target mRNA inhibition (MM.1R, 1 µM) was 20%.
GGTGAGAGACGAAAAC (sugars k3 d10 k3, PS) gave a target mRNA inhibition (MM.1R, 1 µM) of -16%.
With GGTGTGTAAGGTCTGA (sugars k3 d10 k3, PS) the target mRNA inhibition (SK-MEL-28, 4 µM) was 41%.
In the case of “GGTTGGCTGGTCTTTG (sugars k2 d9 e3 k2, PS)”, the target mRNA inhibition (MM.1R, 0.0625 µM) was 44%, the target mRNA inhibition (MM.1R, 0.25 µM) was 52% and the target mRNA inhibition (MM.1R, 1 µM) was 69% and 65%. The target mRNA inhibition (MM.1R, 4 µM) was 84%.
GTAAAGCCCAAAGTTA (sugars k3 d10 k3, PS) showed a target mRNA inhibition (SK-MEL-28, 4 µM) of 27%.
Work on GTAAAGGAGTGCAGGA (sugars k3 d10 k3, PS) yielded a target mRNA inhibition (SK-MEL-28, 4 µM) of 9%.
GTAACAACGACACACG (sugars k3 d10 k3, PS) showed a target mRNA inhibition (SK-MEL-28, 4 µM) of 59%.
GTAACAGGCTATCAGG (sugars k3 d10 k3, PS) was tested, and the target mRNA inhibition (SK-MEL-28, 4 µM) was 45%.
GTAATAGTAAATATCC (sugars k3 d10 k3, PS) showed a target mRNA inhibition (SK-MEL-28, 4 µM) of 61%.
In the case of GTACTTGCCGCTGTCG (sugars k4 d8 k4, PS), the target mRNA inhibition (SK-MEL-28, 4 µM) was 36%.
GTACTTTCTCAAAACC (sugars k3 d10 k3, PS) gave a target mRNA inhibition (SK-MEL-28, 4 µM) of 70%.
In the case of GTAGTATGAGAAACGG (sugars k3 d10 k3, PS), the target mRNA inhibition (SK-MEL-28, 4 µM) was 83% and 80%.
Work on GTATGAGAAACGGCCT (sugars k3 d10 k3, PS) yielded a target mRNA inhibition (SK-MEL-28, 4 µM) of 59%.
GTATTACTCTTAGGCA (sugars k3 d10 k3, PS) showed a target mRNA inhibition (MM.1R, 0.0625 µM) of 13%, a target mRNA inhibition (MM.1R, 0.074 µM) of 15% and a target mRNA inhibition (MM.1R, 0.222 µM) of 7%. For the same sequence, the target mRNA inhibition (MM.1R, 0.25 µM) was 24%, the target mRNA inhibition (MM.1R, 0.666 µM) was 21% and the target mRNA inhibition (MM.1R, 1 µM) was 41%. It also gave a target mRNA inhibition (MM.1R, 2 µM) of 51%, a target mRNA inhibition (MM.1R, 4 µM) of 69% and a target mRNA inhibition (SK-MEL-28, 4 µM) of 64%.
GTATTTATGCCCTCGC (sugars k3 d10 k3, PS) gave a target mRNA inhibition (SK-MEL-28, 4 µM) of 53%.
With GTCAAACCCTACTGGG (sugars k3 d10 k3, PS) the target mRNA inhibition (SK-MEL-28, 4 µM) was 31%.
GTCAAACTATAATTGG (sugars k3 d10 k3, PS) showed a target mRNA inhibition (SK-MEL-28, 4 µM) of 61%.
GTCAAAGAGCTTGCAG (sugars k3 d10 k3, PS) showed a target mRNA inhibition (SK-MEL-28, 4 µM) of 44%.
GTCAACATACACATAG (sugars k3 d10 k3, PS) gave a target mRNA inhibition (SK-MEL-28, 4 µM) of 58%.
In the case of GTCACAAAGCAATTGA (sugars k3 d10 k3, PS), the target mRNA inhibition (SK-MEL-28, 4 µM) was 67%.
